From patent publication US11584759B2, “Macrocyclic kinase inhibitor” (HITGEN INC., priority 2018, dated 2023)
Read-outs that look alike come from different tables or passages of the source.

Experiments:
TRKA Protein (wild type) = target: T1, TRKA Protein (wild type) (Homo sapiens, UniProt P04629); experiment: Detection of TRK inhibitory activity (ADP-Glo kinase assay), TRKA wild type; assay type: biochemical; details: 35 min at room temperature
T1 construct: purchased abcam ab60887
Protocol: (§1) An enzyme reaction buffer was prepared containing 25 mM MOPS, 5 mM MgCl2, 500 μM DTT and 0.005% Triton, and then adjusted to pH 7.5.
(§2) The test compound was diluted with DMSO to 200 times of the desired final concentration, and mixed evenly, then 3 μL of the solution was pipetted to 117 μL of enzyme reaction buffer and mixed thoroughly. Then, 3 μL of the enzyme reaction buffer containing the test compound was pipetted to a 96-well PCR plate. The positive and negative control wells were filled with 3 μL of enzyme reaction buffer containing 2.5% DMSO, respectively. TRK protein was diluted to 0.4 ng/μL with the enzyme reaction buffer, and 6 μL of diluted TRK protein was added to each well except for the well for the blank control group, in which 6 μL of the enzyme reaction buffer was added. The reaction plate was centrifuged at 1000 rpm/min for 1 minute, and the compound and TRK were pre-incubated at room temperature for 10 minutes. A mixed solution with ATP at a concentration of 160 μM and substrate at a concentration of 1 μM was prepared with the enzyme reaction buffer, and 6 μL of the mixed solution was added to each reaction well. The reaction plate was centrifuged at 1000 rpm/min for 1 minute, and incubated at room temperature for 35 minutes. After the enzyme reaction was completed, 15 μL of ADP-Glo was added to each reaction well. The reaction plate was centrifuged at 1000 rpm/min for 1 minute, and incubated at room temperature for 40 minutes. Then 15 μL of the reaction solution from each well was transferred to a 384-well plate, and then 15 μL of detection substrate was added to each corresponding well of the 384-well plate. The 384-well plate was centrifuged at 1000 rpm/min for 1 minute, and incubated at room temperature for 40 minutes. After the reaction, a microplate reader was used to read the cold luminescence signal value in the 384-well plate.
(§3) The residual viability percentage of each concentration was calculated with the following formula: Residual viability (%)=100*(Lumincompond−Luminblank control)/(Luminpostive control−Luminblank control)
(§4) Then, GraphPad 5.0 was fitted to the effect curve to calculate the IC50 value.

TRKA (G667C) = TRKA (G667C) (Homo sapiens, UniProt P04629, G667C); experiment: Detection of TRK inhibitory activity (ADP-Glo kinase assay), TRKA (G667C); assay type: biochemical
Protocol: as §1, §2, §3, §4

[1] = tested on: Ba/F3 ETV6-NTRK3-G623R cell line; experiment: Cell experiment, CellTiter-Glo viability, Ba/F3 ETV6-NTRK3-G623R; assay type: cell-based; details: Mus musculus, BaF3, 72 hours, CTG
Protocol: Cell culture and seeding: (1) cells in logarithmic growth phase were harvested and counted using a […]. The cell viability was detected by trypan blue exclusion method to ensure that the cell viability was above 90%. (2) The cell concentration was adjusted; and 90 μl of cell suspension was added to the 96-well plate.
10 μl of drug solution was added to each well in a 96-well plate inoculated with cells, triplicate per concentration.
End-point for reading: (1) The CTG reagent was thawed and the cell plate was equilibrated to room temperature for 30 minutes. (2) Equal volume of CTG solution was added to each well. (3) The plated was shaken on an orbital shaker for 5 minutes to lyse the cells. (4) The cell plate was placed at room temperature for 20 minutes to stabilize the cold light signal. (5) The cold light value was read.
GraphPad Prism 7.0 software was used to analyze the data, and nonlinear S-curve regression was fitted the data to get the dose-effect curve, and the IC50 value was calculated therefrom. Cell survival (%)=(Lumtest drug−Lumculture control)/(Lumcell control−Lumculture control)×100%.

Sequence of TRKA (G667C) (P04629 33-796 G667C): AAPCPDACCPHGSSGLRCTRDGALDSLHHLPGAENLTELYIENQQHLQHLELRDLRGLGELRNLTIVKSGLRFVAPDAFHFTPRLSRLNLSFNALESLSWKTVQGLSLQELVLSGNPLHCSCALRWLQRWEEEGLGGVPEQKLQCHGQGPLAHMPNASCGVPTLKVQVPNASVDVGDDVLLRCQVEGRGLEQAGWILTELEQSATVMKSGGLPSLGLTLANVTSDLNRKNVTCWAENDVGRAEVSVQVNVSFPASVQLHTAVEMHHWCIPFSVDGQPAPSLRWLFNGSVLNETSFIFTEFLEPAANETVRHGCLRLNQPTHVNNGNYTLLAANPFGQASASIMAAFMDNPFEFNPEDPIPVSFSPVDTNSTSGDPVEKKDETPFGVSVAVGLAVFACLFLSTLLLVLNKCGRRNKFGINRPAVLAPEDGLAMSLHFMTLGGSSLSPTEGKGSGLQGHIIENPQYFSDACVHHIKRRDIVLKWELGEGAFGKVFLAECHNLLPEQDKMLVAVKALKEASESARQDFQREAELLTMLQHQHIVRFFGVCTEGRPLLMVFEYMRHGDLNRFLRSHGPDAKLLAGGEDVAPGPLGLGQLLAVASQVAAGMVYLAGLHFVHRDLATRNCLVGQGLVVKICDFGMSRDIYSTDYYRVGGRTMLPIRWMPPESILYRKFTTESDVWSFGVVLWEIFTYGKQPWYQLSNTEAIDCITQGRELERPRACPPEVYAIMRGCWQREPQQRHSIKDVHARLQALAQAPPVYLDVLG
T1 sequence (P04629 33-796): as the sequence (P04629 33-796 G667C) above, with C635G counted along it

Row | SMILES | IC50 (TRKA Protein (wild type)) [nM] | IC50 (TRKA (G667C)) [nM] | other results
1 | CCOC(=O)c1cnc2ccc3nc2c1N[C@H](C)CCOc1ccc(F)cc1[C@H]1CCCN31 | – | – | ring closure, yield of all isomers (from CCOC(=O)c1cnc2ccc(Cl)nc2c1N[C@H](C)CCOc1ccc(F)cc1[C@H]1CCCN1, cn_pd bond, Pd2(dba)3/SPhos/Cs2CO3, toluene, 64.4 mM, 100.0 °C, 16.0 h): 54%
2 | COc1ccc(CN2CC[C@H](C)Oc3ccc(F)cc3[C@H]3CCCN3c3ccc4ncnc2c4n3)c(OC)c1 | – | – | ring closure, yield of all isomers (from COc1ccc(CN(CC[C@@H](C)O)c2ncnc3ccc(N4CCC[C@@H]4c4cc(F)ccc4O)nc23)c(OC)c1, ether bond, DIAD/triphenylphosphine (printed as triphenylphosphine oxide), tetrahydrofuran, 72.0 mM, 25.0 °C, 3.0 h): 72.3%
3 | C[C@H]1CCNc2c(C(=O)O)cnc3ccc(nc23)N2CCC[C@@H]2c2cc(F)ccc2O1 | – | – | ring closure, yield of all isomers (from C[C@@H](CCNc1c(C(=O)O)cnc2ccc(Cl)nc12)Oc1ccc(F)cc1[C@H]1CCCN1, cn_pd bond, Pd2(dba)3/SPhos/Cs2CO3, toluene, 62.5 mM, 100.0 °C, 16.0 h): 52%
4 | CN1Cc2cc(F)ccc2OCCNc2ncnc3ccc1nc23 [Example 4, 6-fluoro-2-methyl-10-oxa-2,13,15,17,21-pentaazatetracyclo [12.6.2.0^4,9.0^18,^22]docosane-1(21),4,6,8,14(22),15,17,19-octane] | 50 to 500 | – | –
5 | O=C(O)c1cnc2ccc3nc2c1NCCCOc1ccc(F)cc1[C@H]1CCCN31 [Example 10, (6R)-9-fluoro-13-oxa-2,17,21,25-tetraazapentacyclo [16.6.2.0^2,^6.0^7,^12.0^22,^26]hexacosane-1(25),7,9,11,18(26),19,21,23-octane-19-carboxylic acid] | 50 to 500 | – | –
6 | NC(=O)c1cnc2ccc3nc2c1NCCCOc1ccc(F)cc1[C@H]1CCCN31 [Example 11, (6R)-9-fluoro-13-oxa-2,17,21,25-tetraazapentacyclo [16.6.2.0^2,^6.0^7,^12.0^22,^26]hexacosane-1(25),7,9,11,18(26),19,21,23-octane-19-carboxamide] | < 50 | < 50 | –
7 | N#Cc1cnc2ccc3nc2c1NCCCOc1ccc(F)cc1[C@H]1CCCN31 [Example 12, (6R)-9-fluoro-13-oxa-2,17,21,25-tetraazapentacyclo [16.6.2.0^2,^6.0^7,^12.0^22,^26]hexacosane-1(25),7,9,11,18(26),19,21,23-octane-19-nitrile] | < 50 | < 50 | –
8 | C[C@H]1CCOc2ccc(F)cc2[C@@H]2CCCN2c2ccc3ncc(C#N)c(c3n2)N1 [Example 13, (6S,16S)-9-fluoro-16-methyl-13-oxa-2,17,21,25-tetraazapentacyclo [16.6.2.0^2,^6.0^7,^12.0^22,^26]hexacosane-1(25),7,9,11,18(26),19,21,23-octane-19-nitrile] | 50 to 500 | – | –
9 | C[C@@H]1CCOc2ccc(F)cc2[C@@H]2CCCN2c2ccc3ncc(C#N)c(c3n2)N1 [Example 14, (6S,16R)-9-fluoro-16-methyl-3-oxa-2,17,21,25-tetraazapentacyclo [16.6.2.0^2,^6.0^7,^12.0^22,^26]hexacosane-1(25),7,9,11,18(26),19,21,23-octane-19-nitrile] | 50 to 500 | – | –
10 | Fc1cnc2c(c1)[C@H]1CCCN1c1ccc3ncnc(c3n1)NCCCC2 [Example 15, (6R)-9-fluoro-2,11,17,19,21,25-hexaazapentacyclo [16.6.2.0^2,^6.0^7,^12.0^22,^26]hexacosane-1(25),7,9,11,18(26),19,21,23-octane] | < 50 | < 50 | –
11 | C[C@@H]1CCCc2ncc(F)cc2[C@H]2CCCN2c2ccc3ncnc(c3n2)N1 [Example 16, (6R,16R)-9-fluoro-16-methyl-2,11,17,19,21,25-hexaazapentacyclo [16.6.2.0^2,^6.0^7,^12.0^22,^26]hexacosane-1(25),7,9,11,18(26),19,21,23-octane] | < 50 | < 50 | –
12 | C[C@H]1Nc2ccc3ncnc(c3n2)NCCCOc2ccc(F)cc21 [Example 17, 6-fluoro-3-methyl-10-oxa-2,14,16,18,22-pentaazatetracyclo [13.6.2.0^4,^9.0^19,^23] tricosane-1 (22),4,6,8,15(23),16,18,20-octane] | < 50 | < 50 | ring closure, yield of all isomers (from C[C@@H](N)c1cc(F)ccc1OCCCNc1ncnc2ccc(Cl)nc12, cn_pd bond, Pd2(dba)3/SPhos/Cs2CO3, toluene, 12.2 mM, 110.0 °C, 16.0 h): 5.4%
13 | C[C@@H]1CCOc2ccc(F)cc2[C@@H](C)Nc2ccc3ncc(F)c(c3n2)N1 [Example 18, (R,R)-6,16-difluoro-3,13-dimethyl-10-oxa-2,14,18,22-tetraazatetracyclo[13.6.2.0^4,^9.0^19,^23]tricosane-1(22),4,6,8,15(23),16,18,20-octane] | < 50 | < 50 | ring closure, yield of all isomers (from C[C@H](CCOc1ccc(F)cc1[C@@H](C)N)Nc1c(F)cnc2ccc(Cl)nc12, cn_pd bond, SPhos Pd G3/SPhos/Cs2CO3, toluene, 90.0 mM, 100.0 °C, 16.0 h): 8.2%
14 | C[C@@H]1CCOc2ccc(F)cc2[C@H]2CCCN2c2ccc3ncc(F)c(c3n2)N1 [Example 19, (6R,16R)-9,19-difluoro-16-methyl-13-oxa-2,17,21,25-tetraazapentacyclo[16.6.2.0^2,^6.0^7,^12.0^22,^26]hexacosane-1(25),7,9,11,18(26),19,21,23-octane] | < 50 | < 50 | ring closure, yield of all isomers (from C[C@H](CCOc1ccc(F)cc1[C@H]1CCCN1)Nc1c(F)cnc2ccc(Cl)nc12, cn_pd bond, SPhos Pd G3, toluene/tert-butanol, 35.0 mM, 100.0 °C, 16.0 h): 8.1%

More lines, main results first:

Row | IC50 (TRKA Protein (wild type)) [nM] | IC50 (TRKA (G667C)) [nM] | SMILES | other results
15 | < 50 | < 50 | C[C@H]1CCNc2c(C#N)cnc3ccc(nc23)N2CCC[C@@H]2c2cc(F)ccc2O1 [Example 2, (6R,14S)-9-fluoro-14-methyl-3-oxa-2,17,21,25-tetraazapentacyclo [16.6.2.0^2,^6.0^7,^12.0^22,^26]hexacosane-1(25),7,9,11,18(26),19,21,23-octane-19-nitrile] | –
16 | < 50 | < 50 | CN1Cc2cc(F)ccc2OCCCNc2ncnc3ccc1nc23 [Example 3, 6-fluoro-2-methyl-10-oxa-2,14,16,18,22-pentaazatetracyclo [13.6.2.0^4,^9.0^19,^23] tricosane-1(22),4,6,8,15(23),16,18,20-octane] | –
17 | < 50 | < 50 | C[C@@H]1CCOc2ccc(F)cc2CN(C)c2ccc3ncnc(c3n2)N1 [Example 5, (13R)-6-fluoro-2,13-dimethyl-10-oxa-2,14,16,18,22-pentaazatetracyclo[13.6.2.0^4,^9.0^19,^23]tricosane-1(22),4,6,8,15(23),16,18,20-octane] | –
18 | < 50 | < 50 | C[C@@H]1CCOc2ccc(F)cc2[C@H]2CCCN2c2ccc3ncnc(c3n2)N1 [Example 6, (6R,16R)-9-fluoro-16-methyl-13-oxa-2,17,19,21,25-pentaazapentacyclo[16.6.2.0^2,^6.0^7,^12.0,^26]hexacosane-1(25),7,9,11,18(26),19,21,23-octane] | IC50 [1]: 42.1 nM; IC90 [1]: 94.2 nM
19 | < 50 | < 50 | C[C@H]1CCNc2ncnc3ccc(nc23)N2CCC[C@@H]2c2cc(F)ccc2O1 [Example 7, (6R,14S)-9-fluoro-14-methyl-13-oxa-2,17,19,21,25-pentaazapentacyclo[16.6.2.0^2,^6.0^7,^12.0^22,^26]hexacosane-1(25),7,9,11,18(26),19,21,23-octane] | IC50 [1]: 3.6 nM; IC90 [1]: 8.7 nM
20 | < 50 | – | C[C@H]1CCOc2ccc(F)cc2[C@H]2CCCN2c2ccc3ncc(C#N)c(c3n2)N1 [Example 8, (6R,16S)-9-fluoro-16-methyl-3-oxa-2,17,21,25-tetraazapentacyclo [16.6.2.0^2,^6.0^7,^12.0^22,^26]hexacosane-1(25),7,9,11,18(26),19,21,23-octane-19-nitrile] | –
21 | < 50 | > 500 | CCOC(=O)c1cnc2ccc3nc2c1NCCCOc1ccc(F)cc1[C@H]1CCCN31 [Example 9, ethyl (6R)-9-fluoro-13-oxa-2,17,21,25-tetraazapentacyclo [16.6.2.0^2,^6.0^7,^12.0^22,^26]hexacosane-1(25),7,9,11,18(26),19,21,23-octane-19-carboxylate] | –
